From ChEMBL document CHEMBL1201862, “PubChem BioAssay data set” (2004)
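Cultured in 96-well plates, cells were exposed to test compound for 48 hours across five concentrations. GI50 is the concentration that inhibits growth by half.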 The source made the active and inactive calls. No stated cut-off is given here; in the data, active = GI50 up to about 1.1 µM and inactive = higher.

Legend:
Experiment in all cases: NCI-60 cell line screen, 48 h
RPMI-8226 = system: RPMI-8226
CCRF-CEM = system: CCRF-CEM
RXF 393 = system: RXF 393
TK-10 = system: TK-10
NCI/ADR-RES = system: NCI/ADR-RES
A549 = system: A549
T47D = system: T47D
SF-539 = system: SF-539
DU-145 = system: DU-145
NCI-H23 = system: NCI-H23
UO-31 = system: UO-31
IGROV-1 = system: IGROV-1
SF-295 = system: SF-295
ACHN = system: ACHN
HT-29 = system: HT-29
OVCAR-8 = system: OVCAR-8
HCT-15 = system: HCT-15
NCI-H226 = system: NCI-H226
SNB-75 = system: SNB-75
OVCAR-4 = system: OVCAR-4
UACC-62 = system: UACC-62
Malme-3M = system: Malme-3M
HL-60 = system: HL-60
UACC-257 = system: UACC-257
CAKI-1 = system: CAKI-1
HOP-62 = system: HOP-62
SN12C = system: SN12C
OVCAR-3 = system: OVCAR-3
COLO 205 = system: COLO 205
SNB-19 = system: SNB-19
MCF7 = system: MCF7
SK-MEL-5 = system: SK-MEL-5
PC-3 = system: PC-3
SR = system: SR
U-251 = system: U-251
K562 = system: K562
HOP-92 = system: HOP-92
OVCAR-5 = system: OVCAR-5
786-0 = system: 786-0
SK-MEL-28 = system: SK-MEL-28
M14 = system: M14
MDA-MB-435 = system: MDA-MB-435
NCI-H522 = system: NCI-H522
HCT-116 = system: HCT-116
SF-268 = system: SF-268
MDA-MB-231 = system: MDA-MB-231
Hs-578T = system: Hs-578T
KM12 = system: KM12
SW-620 = system: SW-620
SK-OV-3 = system: SK-OV-3
LOX IMVI = system: LOX IMVI
MOLT-4 = system: MOLT-4
NCI-H460 = system: NCI-H460
SK-MEL-2 = system: SK-MEL-2
A498 = system: A498
MDA-N = system: MDA-N
HCC 2998 = system: HCC 2998
EKVX = system: EKVX

For `COc1cc2c(c(O)c1OC)C(=O)C(Cc1ccc(O)cc1)CO2` (stereo not given), the GI50 (RPMI-8226) was 16.6 µM (inactive), the GI50 (CCRF-CEM) was 24.5 µM (inactive) and the GI50 (RXF 393) was 13 µM (inactive). For the same molecule, the GI50 (TK-10) was > 100 µM (inactive), the GI50 (NCI/ADR-RES) was 10.5 µM (inactive) and the GI50 (A549) was 23.8 µM (inactive). The GI50 (T47D) was 29 µM (inactive), the GI50 (SF-539) was 16.1 µM (inactive) and the GI50 (DU-145) was 39.8 µM (inactive). The GI50 (NCI-H23) was 29 µM (inactive), the GI50 (UO-31) was 40.6 µM (inactive) and the GI50 (IGROV-1) was 35.3 µM (inactive). For the same molecule, the GI50 (SF-295) was 5.46 µM (inactive), the GI50 (ACHN) was 42.5 µM (inactive) and the GI50 (HT-29) was 75.7 µM (inactive). For the same molecule, the GI50 (OVCAR-8) was 38.2 µM (inactive), the GI50 (HCT-15) was 11.2 µM and the GI50 (NCI-H226) was 37.9 µM (inactive). For the same molecule, the GI50 (SNB-75) was 18.4 µM (inactive), the GI50 (OVCAR-4) was 44.7 µM (inactive) and the GI50 (UACC-62) was 32.4 µM (inactive). The GI50 (Malme-3M) was 19.9 µM (inactive), the GI50 (HL-60) was 29.2 µM (inactive) and the GI50 (UACC-257) was 54.2 µM (inactive). For the same molecule, the GI50 (CAKI-1) was 23 µM (inactive), the GI50 (HOP-62) was 27.2 µM (inactive) and the GI50 (SN12C) was 36.3 µM (inactive). For the same molecule, the GI50 (OVCAR-3) was 9.4 µM (inactive), the GI50 (COLO 205) was 73.6 µM (inactive) and the GI50 (SNB-19) was 20.3 µM (inactive). The GI50 (MCF7) was 2.33 µM (inactive), the GI50 (SK-MEL-5) was 26.5 µM (inactive) and the GI50 (PC-3) was 33.2 µM (inactive). For the same molecule, the GI50 (SR) was 4.67 µM (inactive), the GI50 (U-251) was 29.5 µM (inactive) and the GI50 (K562) was 13.1 µM (inactive). For the same molecule, the GI50 (HOP-92) was 30.3 µM (inactive), the GI50 (OVCAR-5) was 48.3 µM (inactive) and the GI50 (786-0) was 32.9 µM (inactive). For the same molecule, the GI50 (SK-MEL-28) was 46.8 µM (inactive), the GI50 (M14) was 23.1 µM (inactive) and the GI50 (MDA-MB-435) was 2.36 µM (inactive). The GI50 (NCI-H522) was 3.27 µM (inactive), the GI50 (HCT-116) was 25.3 µM (inactive) and the GI50 (SF-268) was 32.4 µM (inactive). For the same molecule, the GI50 (MDA-MB-231) was 22.9 µM (inactive), the GI50 (Hs-578T) was 14.4 µM (inactive) and the GI50 (KM12) was 23.4 µM (inactive). The GI50 (SW-620) was 30.1 µM (inactive), the GI50 (SK-OV-3) was 18.4 µM (inactive) and the GI50 (LOX IMVI) was 34.1 µM (inactive). The GI50 (MOLT-4) was 35.2 µM (inactive), the GI50 (NCI-H460) was 32.7 µM (inactive) and the GI50 (SK-MEL-2) was 30.8 µM (inactive).
In the case of `CN1CCN(C2=NCCO2)CC1`, the GI50 (RPMI-8226) is reported as > 100 µM (inactive), the GI50 (CCRF-CEM) is reported as > 100 µM (inactive) and the GI50 (RXF 393) is reported as > 100 µM (inactive). The GI50 (TK-10) was > 100 µM (inactive), the GI50 (NCI/ADR-RES) was > 100 µM (inactive) and the GI50 (A498) was > 100 µM (inactive). The GI50 (A549) was > 100 µM (inactive), the GI50 (T47D) was > 100 µM (inactive) and the GI50 (MDA-N) was > 100 µM (inactive). For the same molecule, the GI50 (SF-539) was > 100 µM (inactive), the GI50 (DU-145) was > 100 µM (inactive) and the GI50 (NCI-H23) was > 100 µM (inactive). For the same molecule, the GI50 (UO-31) was > 100 µM (inactive), the GI50 (IGROV-1) was > 100 µM (inactive) and the GI50 (SF-295) was > 100 µM (inactive). For the same molecule, the GI50 (ACHN) was > 100 µM (inactive), the GI50 (HT-29) was > 100 µM (inactive) and the GI50 (HCC 2998) was > 100 µM (inactive). For the same molecule, the GI50 (OVCAR-8) was > 100 µM (inactive), the GI50 (HCT-15) was > 100 µM and the GI50 (NCI-H226) was > 100 µM (inactive). The GI50 (SNB-75) was > 100 µM (inactive), the GI50 (OVCAR-4) was > 100 µM (inactive) and the GI50 (UACC-62) was > 100 µM (inactive). For the same molecule, the GI50 (Malme-3M) was > 100 µM (inactive), the GI50 (HL-60) was > 100 µM (inactive) and the GI50 (UACC-257) was > 100 µM (inactive). For the same molecule, the GI50 (CAKI-1) was > 100 µM (inactive), the GI50 (HOP-62) was > 100 µM (inactive) and the GI50 (SN12C) was > 100 µM (inactive). The GI50 (OVCAR-3) was > 100 µM (inactive), the GI50 (COLO 205) was > 100 µM (inactive) and the GI50 (SNB-19) was > 100 µM (inactive). The GI50 (MCF7) was > 100 µM (inactive), the GI50 (SK-MEL-5) was > 100 µM (inactive) and the GI50 (PC-3) was > 100 µM (inactive). For the same molecule, the GI50 (SR) was > 100 µM (inactive), the GI50 (U-251) was > 100 µM (inactive) and the GI50 (K562) was > 100 µM (inactive). For the same molecule, the GI50 (OVCAR-5) was > 100 µM (inactive), the GI50 (786-0) was > 100 µM (inactive) and the GI50 (SK-MEL-28) was > 100 µM (inactive). The GI50 (M14) was > 100 µM (inactive), the GI50 (MDA-MB-435) was > 100 µM (inactive) and the GI50 (NCI-H522) was > 100 µM (inactive). For the same molecule, the GI50 (HCT-116) was > 100 µM (inactive), the GI50 (SF-268) was > 100 µM (inactive) and the GI50 (MDA-MB-231) was > 100 µM (inactive). The GI50 (EKVX) was > 100 µM (inactive), the GI50 (KM12) was > 100 µM (inactive) and the GI50 (SW-620) was > 100 µM (inactive). For the same molecule, the GI50 (SK-OV-3) was > 100 µM (inactive), the GI50 (LOX IMVI) was > 100 µM (inactive) and the GI50 (MOLT-4) was > 100 µM (inactive). The GI50 (NCI-H460) was > 100 µM (inactive) and the GI50 (SK-MEL-2) was > 100 µM (inactive).
